Results reported in PMC5053523, “In Vitro Antibacterial Activity of Rhodanine Derivatives against Pathogenic Clinical Isolates” (PLoS ONE, 2016).
≈ marks a conversion by molar mass, not a printed value. Like-named read-outs stand apart in the source and are kept apart here.

How the values were obtained:
[1] = tested on: vancomycin resistant enterococci (VRE); assay: Broth microdilution MIC50/MIC90, VRE panel; assay type: cell-based; settings: Enterococcus, 10 VRE strains
Bacillus anthracis = assay: microbe, parasite or virus in culture; assay type: cell-based
B. licheniformis = assay: Broth microdilution MIC/MBC, B. licheniformis; assay type: cell-based; settings: Bacillus licheniformis; for MBC: read-out: MBC; for MIC: read-out: MIC
Bacillus Strains = assay: Broth microdilution MIC50/MIC90 and MIC range, Bacillus strains panel; assay type: cell-based, Bacillus spp.; settings: 10 Bacillus strains
Text: The broth microdilution technique was used, followed by subculturing on agar plates that were rhodanine—free. […] The MICs reported represent the lowest concentration of each compound necessary to inhibit bacterial growth and the MBCs represent the lowest concentration required to reduce the initial bacterial inoculum by ≥ 99.9%.

Clostridium difficile = assay: MIC against Clostridium difficile, anaerobic broth dilution; assay type: cell-based; settings: Clostridioides difficile
Outline: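 Clinical C. difficile isolates grown anaerobically 48 h at 37 °C, suspended to 0.5 McFarland and diluted 1:300 in pre-reduced supplemented Brain Heart Infusion broth. Compounds serially diluted; plates incubated anaerobically at 37 °C for 48 h. MIC = lowest concentration with no visible growth.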

P. aeruginosa = assay: Broth microdilution MIC, P. aeruginosa; assay type: cell-based; settings: Pseudomonas aeruginosa
K. pneumoniae = assay: Broth microdilution MIC, K. pneumoniae; assay type: cell-based
Candida albicans = assay: MIC against Candida albicans; assay type: cell-based; settings: table prints none, read-out: MIC
MRSA USA300 = assay: MIC against MRSA USA300 with and without 4% human serum albumin; assay type: cell-based, Staphylococcus aureus; settings: Staphylococcus aureus, read-out: MIC against MRSA USA300
Outline: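 Broth microdilution MIC per CLSI against MRSA USA300, run in tryptic soy broth alone and with 4% human serum albumin. MIC is the lowest concentration inhibiting growth.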

Escherichia coli O157:H7 [2] = assay: MIC with/without sub-MIC colistin, Escherichia coli O157:H7; assay type: cell-based
Outline: (§1)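 MIC of rhodanines and control antibiotics measured against Gram-negative bacteria in the presence of a sub-inhibitory concentration of colistin or polymixin B nonapeptide (PMBN). Activity was also tested against E. coli SM1411ΔacrAB, which lacks the AcrAB multidrug efflux pump.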

Salmonella Typhimurium [3] = assay: MIC with/without sub-MIC colistin, Salmonella Typhimurium; assay type: cell-based
Outline: as §1

Pseudomonas aeruginosa [4] = assay: MIC with/without sub-MIC colistin, Pseudomonas aeruginosa; assay type: cell-based
Outline: as §1

Acinetobacter baumannii = assay: MIC with/without PMBN, Acinetobacter baumannii; assay type: cell-based
Outline: as §1

Escherichia coli O157:H7 [5] = assay: MIC with/without PMBN, Escherichia coli O157:H7; assay type: cell-based
Outline: as §1

Salmonella Typhimurium [6] = assay: MIC with/without PMBN, Salmonella Typhimurium; assay type: cell-based
Outline: as §1

Klebsiella pneumoniae = assay: MIC with/without PMBN, Klebsiella pneumoniae; assay type: cell-based
Outline: as §1

Pseudomonas aeruginosa [7] = assay: MIC with/without PMBN, Pseudomonas aeruginosa; assay type: cell-based
Outline: as §1

[8] = NCIB9375, B. licheniformis Gibson 46 (NCIB 9375) NR-2494
[9] = NRS712, B. licheniformis NRS 712 NR-2499
[10] = Salmonella enterica, ATCC 700720 / TYPHIMURIUM

O=C(O)[C@@H](Cc1ccccc1)N1C(=O)/C(=C/c2cccc(Cc3ccccc3)c2)SC1=S [Rh 7]
MIC90 ([1]; VRE, read-out: MIC 90): 16 µM (≈ 7.35 µg/mL) | MIC50 ([1]; read-out: MIC 50): 16 µM (≈ 7.35 µg/mL) | MBC (Bacillus anthracis; Bacillus anthracis AMES35): 2 µM (≈ 0.919 µg/mL) | MIC (Bacillus anthracis; Bacillus anthracis AMES35): 2 µM (≈ 0.919 µg/mL) | MBC (Bacillus anthracis; Bacillus anthracis UM23): 2 µM (≈ 0.919 µg/mL) | MIC (Bacillus anthracis; Bacillus anthracis UM23): 2 µM (≈ 0.919 µg/mL) | MBC (Bacillus anthracis; Bacillus anthracis Weybridge): 2 µM (≈ 0.919 µg/mL) | MIC (Bacillus anthracis; Bacillus anthracis Weybridge): 2 µM (≈ 0.919 µg/mL) | MBC (B. licheniformis; [8]): 8 µM (≈ 3.68 µg/mL) | MIC (B. licheniformis; [8]): 8 µM (≈ 3.68 µg/mL) | MBC (B. licheniformis; [9]): 8 µM (≈ 3.68 µg/mL) | MIC (B. licheniformis; [9]): 8 µM (≈ 3.68 µg/mL) | MIC50 (Bacillus Strains): 4 µM (≈ 1.84 µg/mL) | MIC90 (Bacillus Strains): 8 µM (≈ 3.68 µg/mL) | MIC (Clostridium difficile; C. difficile HM-88): 4 µM (≈ 1.84 µg/mL) | MIC (Clostridium difficile; C. difficile HM-745): 1 µM (≈ 0.46 µg/mL) | MIC (Clostridium difficile; C. difficile HM-746): 2 µM (≈ 0.919 µg/mL) | MIC (Clostridium difficile; C. difficile Isolate-1 NR-13427): 4 µM (≈ 1.84 µg/mL) | MIC (Clostridium difficile; C. difficile Toxigenic Strain P8 NR-32888): 4 µM (≈ 1.84 µg/mL) | MIC (P. aeruginosa; ATCC9721): > 128 µM | MIC (P. aeruginosa; ATCC15442): > 128 µM | MIC (K. pneumoniae; K. pneumoniae NR-15417): >128 µM | MIC (K. pneumoniae; Klebsiella pneumoniae): > 128 µM | MIC (Candida albicans; ATCC10231, C. albicans ATCC 10231, unit from abstract): > 64 µM | MIC (Candida albicans; C. albicans NR 29434, unit from abstract): > 64 µM | MIC (Candida albicans; C. albicans NR 29435, unit from abstract): > 64 µM | MIC (Candida albicans; C. albicans NR29437, unit from abstract): > 64 µM | MIC (Candida albicans; C. albicans NR29438, unit from abstract): > 64 µM | MIC (Candida albicans; C. albicans NR 29446, unit from abstract): 64 µM (≈ 29.4 µg/mL) | MIC (Candida albicans; C. albicans NR 29448, unit from abstract): > 64 µM | MIC (Candida albicans; C. albicans NR 29449, unit from abstract): > 64 µM | MIC (Candida albicans; C. albicans NR 29453, unit from abstract): > 64 µM | MIC (Candida albicans; C. albicans NR 294436, unit from abstract): > 64 µM | MIC (MRSA USA300; 24 h, Media TSB + 4% HSA): > 64 µM | MIC (MRSA USA300; Media TSB): 16 µM (≈ 7.35 µg/mL) | MIC (Escherichia coli O157:H7 [2]; Escherichia coli O157:H7 ATCC 35150, colistin (+) […], read-out: MIC): >64 µM | MIC (Escherichia coli O157:H7 [2]; Escherichia coli O157:H7 ATCC 700728, colistin (+) […], read-out: MIC): >64 µM | MIC (Escherichia coli O157:H7 [2]; Escherichia coli, ATCC35150): > 128 µM | MIC (Escherichia coli O157:H7 [2]; Escherichia coli, ATCC700728): > 128 µM | MIC (Salmonella Typhimurium [3]; Salmonella Typhimurium ATCC 700720, colistin (+) […], read-out: MIC): >64 µM | MIC (Salmonella Typhimurium [3]; [10]): > 128 µM | MIC (Pseudomonas aeruginosa [4]; Pseudomonas aeruginosa ATCC 921, colistin (+) […], read-out: MIC): >64 µM | MIC (Pseudomonas aeruginosa [4]; Pseudomonas aeruginosa, ATCC921): > 128 µM | MIC (Acinetobacter baumannii; Acinetobacter baumannii ATCC BAA747, PMBN (+) 4 μg/mL, read-out: MIC): >64 µM | MIC (Acinetobacter baumannii; Acinetobacter baumannii ATCC BAA19606, PMBN (+) 4 μg/mL, read-out: MIC): >64 µM | MIC (Acinetobacter baumannii; Acinetobacter baumannii, ATCCBAA747): > 128 µM | MIC (Acinetobacter baumannii; Acinetobacter baumannii, ATCCBAA19606): > 128 µM | MIC (Escherichia coli O157:H7 [5]; Escherichia coli O157:H7 ATCC 35150, PMBN (+) 4 μg/mL, read-out: MIC): 8 µM (≈ 3.68 µg/mL) | MIC (Escherichia coli O157:H7 [5]; Escherichia coli O157:H7 ATCC 700728, PMBN (+) 4 μg/mL, read-out: MIC): >64 µM | MIC (Escherichia coli O157:H7 [5]; Escherichia coli, ATCC35150): > 256 µM | MIC (Escherichia coli O157:H7 [5]; Escherichia coli, ATCC700728): > 128 µM | MIC (Salmonella Typhimurium [6]; Salmonella Typhimurium ATCC 700720, PMBN (+) 4 μg/mL, read-out: MIC): >128 µM | MIC (Salmonella Typhimurium [6]; [10]): > 128 µM | MIC (Klebsiella pneumoniae; Klebsiella pneumoniae ATCC BAA 1706, PMBN (+) 4 μg/mL): >64 µM | MIC (Klebsiella pneumoniae; Klebsiella pneumoniae ATCC BAA 2146, PMBN (+) 4 μg/mL): >64 µM | MIC (Klebsiella pneumoniae; Klebsiella pneumoniae, BAA1706): > 128 µM | MIC (Klebsiella pneumoniae; Klebsiella pneumoniae, BAA2146): > 128 µM | MIC (Pseudomonas aeruginosa [7]; Pseudomonas aeruginosa ATCC 9721, PMBN (+) 4 μg/mL, read-out: MIC): >64 µM | MIC (Pseudomonas aeruginosa [7]; Pseudomonas aeruginosa, ATCC9721): > 128 µM
